In patent publication US12331040B2 (Karyopharm Therapeutics Inc., priority 2013, dated 2025):
Where two headings read alike, the source gives them in different places.

Assays:
Experiment in all cases: MTT cell proliferation assay
Type in all cases: cell-based
3T3 cells = conditions: Mus musculus, NIH3T3, approximately 64-72 hours incubation
Protocol: (§1) The MTT cell proliferation assay was used to study the cytotoxic properties of the compounds. The assay was performed according to the method described by Roche Molecular Biochemicals, with minor modifications. The assay is based on the cleavage of the tetrazolium salt, MTT, in the presence of an electron-coupling reagent. The water-insoluble formazan salt produced must be solubilized in an additional step. Cells grown in a 96-well tissue culture plate were incubated with the MTT solution for approximately 4 hours. After this incubation period, a water-insoluble formazan dye formed. After solubilization, the formazan dye was quantitated using a scanning multi-well spectrophotometer (ELISA reader). […] The cells were seeded at 5,000-10,000 cells in each well of 96-well plate in 100 μL of fresh culture medium and were allowed to attach overnight. The stock solutions of the compounds were diluted in 100 μL cell culture medium to obtain eight concentrations of each test compound, ranging from 1 nM to 30 μM. […] All optical densities were measured at 490 nm using a Vmax Kinetic Microplate Reader (Molecular Devices). In most cases, the assay was performed in duplicate and the results were presented as a mean percent inhibition to the negative control±SE. The following formula was used to calculate the percent of inhibition: Inhibition (%)=(1−(ODo/OD))×100.
(§2) The compounds were tested against MS751, Z138 and 3T3 cells. The MS751 cell line is derived from a metastasis to lymph node of human cervix from a patient diagnosed with squamous cell carcinoma of the cervix. The Z138 cell line is a mature B-cell acute lymphoblastic leukemia cell line derived from a patient with chronic lymphocytic leukemia. 3T3 cells are standard fibroblast cells; they were originally isolated from Swiss mouse embryo tissue.

MS751 cells = conditions: Homo sapiens, MS751, MS751 cells, approximately 64-72 hours incubation
Protocol: as §1, §2

Z138 cells = conditions: Homo sapiens, Z-138, Z138 cells, approximately 64-72 hours incubation
Protocol: as §1, §2

[1] = read-out: MTT Assay IC50, MS-751
[2] = read-out: MTT Assay IC50, Z-138
[3] = read-out: MTT Assay IC50 MS-751

`Nc1ccc(/C=C/C(=O)NCc2cc3cc(-c4ccc(C(=O)N5CCC(F)(F)CC5)cc4F)cc(-c4ccc(F)cc4F)c3o2)cn1` [Compound 753, (E)-3-(6-aminopyridin-3-yl)-N-((7-(2,4-difluorophenyl)-5-(4-(4,4-difluoropiperidine-1-carbonyl)-2-fluorophenyl)benzofuran-2-yl)methyl)acrylamide] was tested, and the IC50 (3T3 cells; read-out: MTT Assay IC50, 3T3) was 0.1 to 5 µM, the IC50 (MS751 cells; [1]) was < 0.1 µM and the IC50 (Z138 cells; [2]) was < 0.1 µM.
In the case of `Cc1noc(C)c1C(O)c1ccc(-c2cc(Cl)c3oc(CNC(=O)/C=C/c4ccc(N)nc4)cc3c2)s1` (stereo not drawn) [Compound 578, (E)-3-(6-aminopyridin-3-yl)-N-((7-chloro-5-(5-((3,5-dimethylisoxazol-4-yl)(hydroxy)methyl)thiophen-2-yl)benzofuran-2-yl)methyl)acrylamide], the IC50 (3T3 cells; read-out: MTT Assay IC50 3T3) is reported as > 10 µM, the IC50 (MS751 cells; [3]) is reported as 5 to 10 µM and the IC50 (Z138 cells; read-out: MTT Assay IC50 Z-138) is reported as 5 to 10 µM.
For `Cc1noc(C)c1/C=C/C(=O)NCc1cc2cc(-c3ccc(C(=O)N4CCOCC4)cc3)cc(Cl)c2o1` [Compound 541, (E)-N-((7-Chloro-5-(4-(morpholine-4-carbonyl)phenyl)benzofuran-2-yl)methyl)-3-(3,5-dimethylisoxazol-4-yl)acrylamide], the IC50 (3T3 cells; read-out: MTT Assay IC50 3T3) was > 10 µM, the IC50 (MS751 cells; [3]) was 0.1 to 5 µM and the IC50 (Z138 cells; read-out: MTT Assay IC50 Z-138) was 0.1 to 5 µM.
For `Nc1cc2ccc(/C=C/C(=O)NCc3cc4cc(-c5ccc(C(=O)N6CCC(F)(F)CC6)cn5)cc(C(F)(F)F)c4o3)cc2cn1` [Compound 670, (E)-3-(3-aminoisoquinolin-7-yl)-N-((5-(5-(4,4-difluoropiperidine-1-carbonyl)pyridin-2-yl)-7-(trifluoromethyl)benzofuran-2-yl)methyl)acrylamide], the IC50 (3T3 cells; read-out: MTT Assay IC50, 3T3) was > 10 µM, the IC50 (MS751 cells; [1]) was > 10 µM and the IC50 (Z138 cells; [2]) was > 10 µM.
`NC(=O)c1ccc(-c2cc(Cl)c3oc(CNC(=O)/C=C/c4ccc(N)nc4)cc3c2)cc1` [Compound 506, (E)-4-(2-((3-(6-aminopyridin-3-yl)acrylamido)methyl)-7-chlorobenzofuran-5-yl)benzamide] was tested, and the IC50 (3T3 cells; read-out: MTT Assay IC50 3T3) was > 10 µM, the IC50 (MS751 cells; [3]) was 5 to 10 µM and the IC50 (Z138 cells; read-out: MTT Assay IC50 Z-138) was 0.1 to 5 µM.
`Nc1ccc(/C=C/C(=O)NCc2cc3cc(-c4ccc(S(=O)(=O)N5CC(F)(F)C5)cc4)cc(C(F)(F)F)c3o2)cn1` [Compound 644, (E)-3-(6-aminopyridin-3-yl)-N-((5-(4-(3,3-difluoroazetidin-1-ylsulfonyl)phenyl)-7-(trifluoromethyl)benzofuran-2-yl)methyl)acrylamide] was tested, and the IC50 (3T3 cells; read-out: MTT Assay IC50 3T3) was > 10 µM, the IC50 (MS751 cells; [3]) was 5 to 10 µM and the IC50 (Z138 cells; read-out: MTT Assay IC50 Z-138) was 0.1 to 5 µM.
With `Cc1noc(C)c1-c1cc(-c2ccc(F)cc2)c2oc(CNC(=O)/C=C/c3ccc(N)nc3)cc2c1` [Compound 694, (E)-3-(6-aminopyridin-3-yl)-N-((5-(3,5-dimethylisoxazol-4-yl)-7-(4-fluorophenyl)benzofuran-2-yl)methyl)acrylamide] the IC50 (3T3 cells; read-out: MTT Assay IC50, 3T3) was > 10 µM, the IC50 (MS751 cells; [1]) was 0.1 to 5 µM and the IC50 (Z138 cells; [2]) was < 0.1 µM.
For `O=C(/C=C/c1cccnc1)NCc1cc2cc(-c3ccc(C(=O)N4CCC(F)(F)CC4)cn3)cc(-c3cccc(F)c3)c2o1` [Compound 720, (E)-N-((5-(5-(4,4-difluoropiperidine-1-carbonyl)pyridin-2-yl)-7-(3-fluorophenyl)benzofuran-2-yl)methyl)-3-(pyridin-3-yl)acrylamide], the IC50 (3T3 cells; read-out: MTT Assay IC50, 3T3) was < 0.1 µM, the IC50 (MS751 cells; [1]) was < 0.1 µM and the IC50 (Z138 cells; [2]) was < 0.1 µM.
`Nc1ccc(/C=C/C(=O)NCCc2cc3cc(-c4ccc(C(=O)N5CCOCC5)cc4)cc(Cl)c3o2)cn1` [Compound 532, (E)-3-(6-aminopyridin-3-yl)-N-(2-(7-chloro-5-(4-(morpholine-4-carbonyl)phenyl)benzofuran-2-yl)ethyl)acrylamide] was tested, and the IC50 (3T3 cells; read-out: MTT Assay IC50 3T3) was < 0.1 µM, the IC50 (MS751 cells; [3]) was < 0.1 µM and the IC50 (Z138 cells; read-out: MTT Assay IC50 Z-138) was < 0.1 µM.
`Nc1ccc(/C=C/C(=O)NCc2cc3cc(-c4ccc(C(=O)C(=O)N5CCOCC5)cc4)cc(Cl)c3o2)cn1` [Compound 545, (E)-3-(6-Aminopyridin-3-yl)-N-((7-chloro-5-(4-(2-morpholino-2-oxoacetyl)phenyl)benzofuran-2-yl)methyl)acrylamide] was tested, and the IC50 (3T3 cells; read-out: MTT Assay IC50 3T3) was 5 to 10 µM, the IC50 (MS751 cells; [3]) was 0.1 to 5 µM and the IC50 (Z138 cells; read-out: MTT Assay IC50 Z-138) was 0.1 to 5 µM.
In the case of `Nc1ccc(/C=C/C(=O)NCc2cc3cc(-c4ccc(C(=O)N5CCCCC5)cc4)cc(Cl)c3o2)cn1` [Compound 600, (E)-3-(6-aminopyridin-3-yl)-N-((7-chloro-5-(4-(piperidine-1-carbonyl)phenyl)benzofuran-2-yl)methyl)acrylamide], the IC50 (3T3 cells; read-out: MTT Assay IC50 3T3) is reported as > 10 µM, the IC50 (MS751 cells; [3]) is reported as 5 to 10 µM and the IC50 (Z138 cells; read-out: MTT Assay IC50 Z-138) is reported as 0.1 to 5 µM.
With `CC1(F)CCN(C(=O)c2ccc(-c3cc(C(F)(F)F)c4oc(CNC(=O)/C=C/c5ccc(N)nc5)cc4c3)cc2)C1` (stereo not drawn) [Compound 608, (E)-3-(6-aminopyridin-3-yl)-N-((5-(4-(3-fluoro-3-methylpyrrolidine-1-carbonyl)phenyl)-7-(trifluoromethyl)benzofuran-2-yl)methyl)acrylamide] the IC50 (3T3 cells; read-out: MTT Assay IC50 3T3) was > 10 µM, the IC50 (MS751 cells; [3]) was 0.1 to 5 µM and the IC50 (Z138 cells; read-out: MTT Assay IC50 Z-138) was 0.1 to 5 µM.
`Nc1ccc(/C=C/C(=O)NCc2cc3cc(-c4ncc(C(=O)N5CCC(F)(F)CC5)cc4F)cc(-c4ccc(F)cc4)c3o2)cn1` [Compound 764, (E)-3-(6-aminopyridin-3-yl)-N-((5-(5-(4,4-difluoropiperidine-1-carbonyl)-3-fluoropyridin-2-yl)-7-(4-fluorophenyl)benzofuran-2-yl)methyl)acrylamide] was tested, and the IC50 (3T3 cells; read-out: MTT Assay IC50, 3T3) was 0.1 to 5 µM, the IC50 (MS751 cells; [1]) was < 0.1 µM and the IC50 (Z138 cells; [2]) was < 0.1 µM.
`Nc1ccc(/C=C/C(=O)NCc2cc3cc(-c4cc(F)c(C(=O)N5CCOCC5)cc4F)cc(Cl)c3o2)cn1` [Compound 547, (E)-3-(6-aminopyridin-3-yl)-N-((7-chloro-5-(2,5-difluoro-4-(morpholine-4-carbonyl)phenyl)benzofuran-2-yl)methyl)acrylamide] was tested, and the IC50 (3T3 cells; read-out: MTT Assay IC50 3T3) was > 10 µM, the IC50 (MS751 cells; [3]) was 0.1 to 5 µM and the IC50 (Z138 cells; read-out: MTT Assay IC50 Z-138) was 0.1 to 5 µM.
With `Nc1ccc(/C=C/C(=O)NCc2cc3cc(-c4ccc(C(=O)N5CCC(F)(F)CC5)cc4)cc(-c4cccc(C(F)(F)F)c4)c3o2)cn1` [Compound 731, (E)-3-(6-aminopyridin-3-yl)-N-((5-(4-(4,4-difluoropiperidine-1-carbonyl)phenyl)-7-(3-(trifluoromethyl)phenyl)benzofuran-2-yl)methyl)acrylamide] the IC50 (3T3 cells; read-out: MTT Assay IC50, 3T3) was 0.1 to 5 µM, the IC50 (MS751 cells; [1]) was 0.1 to 5 µM and the IC50 (Z138 cells; [2]) was < 0.1 µM.
For `Nc1ccc(/C=C/C(=O)NCc2cc3cc(-c4ccc(C(=O)N5CCC(F)(F)CC5)cc4)cc(-c4cc(Cl)c(F)cc4F)c3o2)cn1` [Compound 698, (E)-3-(6-aminopyridin-3-yl)-N-((7-(5-chloro-2,4-difluorophenyl)-5-(4-(4,4-difluoropiperidine-1-carbonyl)phenyl)benzofuran-2-yl)methyl)acrylamide], the IC50 (3T3 cells; read-out: MTT Assay IC50, 3T3) was 0.1 to 5 µM, the IC50 (MS751 cells; [1]) was < 0.1 µM and the IC50 (Z138 cells; [2]) was < 0.1 µM.
With `O=C(/C=C/c1cscn1)NCc1cc2cc(-c3ccc(C(=O)N4CCOCC4)cc3)cc(Cl)c2o1` [Compound 542] the IC50 (3T3 cells; read-out: MTT Assay IC50 3T3) was > 10 µM, the IC50 (MS751 cells; [3]) was 0.1 to 5 µM and the IC50 (Z138 cells; read-out: MTT Assay IC50 Z-138) was 0.1 to 5 µM.
In the case of `Cc1ccncc1-c1cc(-c2ccc(C(=O)N3CCC(F)(F)CC3)cc2)cc2cc(CNC(=O)/C=C/c3ccc(N)nc3)oc12` [Compound 744, (E)-3-(6-aminopyridin-3-yl)-N-((5-(4-(4,4-difluoropiperidine-1-carbonyl)phenyl)-7-(4-methylpyridin-3-yl)benzofuran-2-yl)methyl)acrylamide], the IC50 (3T3 cells; read-out: MTT Assay IC50, 3T3) is reported as 0.1 to 5 µM, the IC50 (MS751 cells; [1]) is reported as < 0.1 µM and the IC50 (Z138 cells; [2]) is reported as < 0.1 µM.
Work on `Nc1ccc(/C=C/C(=O)NCc2cc3cc(-c4ccc(S(=O)(=O)N5CCC(F)(F)CC5)cc4)cc(C(F)(F)F)c3o2)cn1` [Compound 679, (E)-3-(6-aminopyridin-3-yl)-N-((5-(4-((4,4-difluoropiperidin-1-yl)sulfonyl)phenyl)-7-(trifluoromethyl)benzofuran-2-yl)methyl)acrylamide] yielded an IC50 (3T3 cells; read-out: MTT Assay IC50, 3T3) of 0.1 to 5 µM, an IC50 (MS751 cells; [1]) of 0.1 to 5 µM and an IC50 (Z138 cells; [2]) of 0.1 to 5 µM.
For `COc1cc(-c2ccc(C(=O)N3CCNCC3)cc2)cc2cc(CNC(=O)/C=C/c3ccc(N)nc3)oc12` [Compound 637, (E)-3-(6-aminopyridin-3-yl)-N-((7-methoxy-5-(4-(piperazine-1-carbonyl)phenyl)benzofuran-2-yl)methyl)acrylamide], the IC50 (3T3 cells; read-out: MTT Assay IC50 3T3) was > 10 µM, the IC50 (MS751 cells; [3]) was 0.1 to 5 µM and the IC50 (Z138 cells; read-out: MTT Assay IC50 Z-138) was 0.1 to 5 µM.
`Nc1ccc(/C=C/C(=O)NCc2cc3cc(-c4ncc(C(=O)N5CCOCC5)cn4)cc(Cl)c3o2)cn1` [Compound 583, (E)-3-(6-aminopyridin-3-yl)-N-((7-chloro-5-(5-(morpholine-4-carbonyl)pyrimidin-2-yl)benzofuran-2-yl)methyl)acrylamide] was tested, and the IC50 (3T3 cells; read-out: MTT Assay IC50 3T3) was > 10 µM, the IC50 (MS751 cells; [3]) was 0.1 to 5 µM and the IC50 (Z138 cells; read-out: MTT Assay IC50 Z-138) was 0.1 to 5 µM.
`CN1CCN(C(=O)c2cnc(-c3cc(C(F)(F)F)c4oc(CNC(=O)/C=C/c5ccc(N)nc5)cc4c3)nc2)CC1` [Compound 594, (E)-3-(6-aminopyridin-3-yl)-N-((5-(5-(4-methylpiperazine-1-carbonyl)pyrimidin-2-yl)-7-(trifluoromethyl)benzofuran-2-yl)methyl)acrylamide] was tested, and the IC50 (3T3 cells; read-out: MTT Assay IC50 3T3) was > 10 µM, the IC50 (MS751 cells; [3]) was 0.1 to 5 µM and the IC50 (Z138 cells; read-out: MTT Assay IC50 Z-138) was 0.1 to 5 µM.
